In publication PMC3629081, “Tetrahydropyrazolo[1,5-a]Pyrimidine-3-Carboxamide and N-Benzyl-6′,7′-Dihydrospiro[Piperidine-4,4′-Thieno[3,2-c]Pyran] Analogues with Bactericidal Efficacy against Mycobacterium tuberculosis Targeting MmpL3” (PLoS ONE, 2013):
Values after ≈ are worked out from the molar mass of the structure shown. Values joined by “and” are separate entries in the source; they are usually repeats but may differ in a detail not shown here. Equal values may be shown once. Read-outs that look alike come from different tables or passages of the source. Marks after values point to notes of the source that are not given here.

Tests used:
[1] = tested on: HepG2 cells; assay type: cell-based, human; conditions: for HepG2 Tox50: 48 h incubation
Procedure: Cytotoxicity assay was performed measuring the viability of immortalized human cell line culture (HepG2) after 48 h of incubation with a full curve concentration of the test substances in culture medium. For read out of viability of cells we used Resazurine (BDH®). Resazurin is used as an oxidation-reduction indicator that yields a colorimetric change and a fluorescent signal in response to metabolic activity. As cell grow, metabolic activity results in a chemical reduction of Resazurin indicated by a change from non-fluorescent blue to the reduced fluorescent pink form. The degree of Resazurin fluorescence is therefore, an indicator of the number of viable cells in the culture system. The cytotoxicity results were expressed as Tox50 values (IC50). This was done by calculating the concentration of test compounds that would result in a decrease in Resazurin reduction equivalent to 50% of the concurrent control values. The protocol we followed is described below briefly.
Cell line HepG2 (HB-8065) were cultured with fresh medium (Essential Minimum Eagle Medium, EMEM, supplemented with 5% fetal calf serum and 2 mM L-glutamine) the day before subculturing the plates. On the day of the assay, cells (10,000 cells/well) were seeded in a black 96-well collagen coated microplate with clear bottom, (Becton Dickinson®) except in column 11, that was dispensed only 100 μL of culture medium.
Stock solution from each test substances was prepared in 100% DMSO. Ten serial 1∶2 dilutions were prepared of each test compound and, finally, a 1∶200 dilution was made, in medium, to achieve a final concentration of 0.5% of DMSO. Resazurin tablets (Merck®) were dissolved in phosphate buffer saline at a concentration of 0.0042%.
After 24 h of incubation of the cells (37°C, 5% CO2, 95% relative humidity), a volume of 150 μL of culture medium containing the appropriate test concentrations of the compounds dilutions were added to cells in two replicates. In column 12, only 150 μL of 0.5% DMSO was added (blank control). Then, cells were exposed to test compounds for 48 h. After that, medium was removed and Resazurin solution was added to each well and incubated for further 1.5 h. Fluorescence was measured at an excitation wavelength of 515 nm and an emission wavelength of 590 nm in a Microplate reader 1420 Multilabel HTS counter, Victor 2, (Wallac®) The fluorescence value of each well is corrected by subtracting the background value (average of column 11) from the absolute value. The percentages of inhibition are calculated relatively to the DMSO control wells (average of column 12). For each compound, the average value of the duplicate samples is calculated. Data were processed using an Excel spreadsheet and GraphPad Software analysis. Tox50 values were calculated from the Sigmoidal dose-response (variable slope) curves by nonlinear regression analysis.

[2] = in vivo; set-up: species or system mice
Procedure: Figure 5 Whole blood pharmacokinetic profile and main parameters of compounds 3 and 4. Compounds were given orally at 50 mg/Kg suspension in 1% aqueous methylcellulose. Main pharmacokinetic parameters were established after non-compartimental analysis. AUC: Area Under the Curve; Cmax: Maximum concentration observed in whole blood; %F: percentage bioavailability. TEXT PRINTED IN THE PICTURE: 3: Tmax (h): 3.0 ± 2.8 (Dose (mg/kg): 50); Cmax (μg/ml): 1.8 ± 0.5 (Dose (mg/kg): 50); AUC0-24h (μg*h/ml): 26.2 ± 9.4 (Dose (mg/kg): 50); DNAUC0-24h (μg*h/ml per mg/kg): 0.6 ± 0.2 (Dose (mg/kg): 50); %F: 96.1 ± 32.2 (Dose (mg/kg): 50) | 4: Tmax (h): 0.7 ± 0.1 (Dose (mg/kg): 50); Cmax (μg/ml): 1.3 ± 0.2 (Dose (mg/kg): 50); AUC0-24h (μg*h/ml): 8.7 ± 0.6 (Dose (mg/kg): 50); DNAUC0-24h (μg*h/ml per mg/kg): 0.20 ± 0.01 (Dose (mg/kg): 50); %F: 54.6 ± 5.4 (Dose (mg/kg): 50)
Experimental compounds were administered by oral gavage at 50 mg/kg single dose at a volume of 20 ml/kg to n = 5 mice. All mice received treatment in the fed state. Peripheral total blood was the compartment chosen for the establishment of compound concentrations: 25 μl of blood was taken from the lateral tail vein for each mouse at 15, 30 and 45 minutes, 1, 2, 4, 8 and 24 hours. LC-MS was used as the analytical method of choice for the establishment of compound concentration in blood with a sensitivity of LLQ = 1–5 ng/ml in 25 µl blood. The non-compartmental data analysis (NCA) was performed with WinNonlin Phoenix 6.3 (Pharsight, Certara L.P) and supplementary analysis was performed with GraphPad Prism 5 (GraphPad Software, Inc).

[3] = tested on: M. tuberculosis H37Rv; experiment: In vivo efficacy in acute TB murine model; set-up: species or system Mycobacterium tuberculosis
[4] = assay type: in vitro ADME, mouse
Procedure: (§1) Pooled mouse, rat, dog and human liver microsomes were purchased from Xenotech. Microsomes (final protein concentration 0.5 mg/ml, MgCl2 (final concentration 5 mM) and test compound (final substrate concentration 0.5 µM; final DMSO concentration 0.5 %) in 0.1 M phosphate buffer pH 7.4 were pre-incubated at 37°C prior to the addition of NADPH (final concentration 1 mM) to initiate the reaction. The final incubation volume was 600 µl. Control incubation was included for each compound tested where 0.1 M phosphate buffer pH 7.4 was added instead of NADPH (minus NADPH). One control compound was included with each species. All incubations were performed singularly for each test compound. Each compound was incubated for 30 minutes and samples (90 µl) of incubate were taken at 0, 5, 10, 20 and 30 minutes. The control (minus NADPH) was sampled at 0 and 30 minutes only. The reactions were stopped by the addition of sample to 200 µl of acetonitrile:methanol (3∶1) containing an internal standard. The terminated samples were centrifuged at 3700 rpm for 15 minutes at 4°C to precipitate the protein. Quantitative analysis: following protein precipitation, the samples were analyzed using specific LC-MS/MS conditions. Data analysis: from a plot of ln peak area ratio (compound peak area/internal standard peak area) against time, the gradient of the line was determined. Subsequently, half-life and intrinsic clearance were calculated using the equations below:
(§2) Elimination rate constant (k) = (-gradient) Half life [drawing 1]
(§3) Intrinsic Clearance (CLint) (ml/min/g protein) = [drawing 2] where V = Incubation volume ml/g microsomal protein.

[5] = tested on: panel of Gram-positive and Gram-negative organisms; experiment: General antimicrobial activity assay (broth microdilution); assay type: cell-based; conditions: read-out: Antibacterial panel IC50
Procedure: Whole-cell antimicrobial activity was determined by broth microdilution using the Clinical and Laboratory Standards Institute (CLSI) recommended procedure, Document M7-A7, “Methods for Dilution Susceptibility Tests for Bacteria that Grow Aerobically”. Some compounds have been evaluated against a panel of Gram-positive and Gram-negative organisms, including Enterococcus faecium, Enterococcus faecalis, Haemophilus influenzae, Moraxella catarrhalis, Streptococcus pneumoniae, Escherichia coli and Streptococcus pyogenes. The MIC was determined as the lowest concentration of compound producing a >80 % reduction in fluorescence observed.

[6] = tested on: M. tuberculosis H37Rv; experiment: MIC determination against M. tuberculosis H37Rv (resazurin); assay type: cell-based, Mycobacterium tuberculosis
[7] = tested on: M. tuberculosis; experiment: Killing kinetics assay; assay type: cell-based, Mycobacterium tuberculosis; conditions: for reduction of cfu counts after one week of treatment: 20x MIC; for in vitro killing behaviour: kill rate over 7 days
[8] = tested on: GFP expressing M. tuberculosis H37Rv in Raw264.7 macrophages; experiment: microbe, parasite or virus in culture; assay type: cell-based, Mycobacterium tuberculosis; conditions: read-out: Intracell. H37Rv MIC80
[9] = physchem
[10] = in words
[11] = tested on: clinical M. tuberculosis isolates; experiment: MIC against clinical strains (BACTEC MGIT 960); assay type: cell-based, Mycobacterium tuberculosis; conditions: for MIC90: Mycobacterium tuberculosis, read-out: M. tuberculosis MIC90 (108 strains)
[12] = assay type: in vitro ADME, human; conditions: for Cli human: human microsomes
Procedure: as §1, §2, §3

[13] = tested on: M. bovis BCG; assay type: cell-based, Mycobacterium bovis BCG
[14] = Mycobacterium tuberculosis, H37RV
[15] = Sensitive phenotype, 60 strains
[16] = monoR H (Isoniazid), 20 strains
[17] = monoR Rf (Rifampicin), 3 strains
[18] = monoR Sm (Streptomycin), 11 strains

Structure (SMILES) | HepG2 Tox50 [1] | IC50 [5] [µM] | MIC ([6]; Mycobacterium tuberculosis) [µM] | Cli mouse ([4]; mouse microsomes) [mL/min/g] | reduction of cfu counts after one week of treatment [7] [log cfu] | in vitro killing behaviour [7] | MIC80 [8, 14] [µM] | solubility [9] [µM] | Range of MIC's [11] | MIC90 [11] [µM] | Range of MIC's [11, 15] [µM] | Range of MIC's [11, 16] [µM] | Range of MIC's [11, 17] [µM] | Range of MIC's [11, 18] [µM] | Cli human [12] [mL/min/g] | effect on TMM in [14C]-labelled cultures [13] | effect on other classes of lipids, in particular phospholipids [13] | other results
Cl.FC(F)(F)Oc1ccc(Oc2ccc(CN3CCC4(CC3)OCCc3sccc34)cc2)cc1 [Compound 4] | 36 µM | – | – | – | – | – | – | – | – | – | – | – | – | – | – | – | – | AUC ([2]; mouse, in vivo, po, 50 mg/kg): > 1000 ng·h/mL; Cmax ([2]; mouse, in vivo, po, 50 mg/kg): 1300 ± 200 ng/mL; DNAUC0-24h ([2]; mouse, in vivo, po, 50 mg/kg): 0.20 ± 0.01 μg*h/ml per mg/kg; Tmax ([2]; mouse, in vivo, po, 50 mg/kg): 0.7 ± 0.1 h; bioavailability ([2]; mouse, in vivo, po, 50 mg/kg): 54.6 ± 5.4%; AUC(0-t) ([2]; mouse, in vivo, po, 50 mg/kg, AUC0-24h): 8700 ± 600 ng·h/mL; AUC(0-t) ([2]; mouse, in vivo, po, 50 mg/kg, AUC 24h): 8700 ng·h/mL; reduction in lung bacterial load ([3]; in vivo): 2.3 log units and 2.7 log units; Cli mouse ([4]; mouse, pH 7.4): 1.2 mL/min/g
CCc1ccc([C@H]2C[C@@H](C(F)(F)F)n3ncc(C(=O)NCc4ccc(OC)cc4)c3N2)cc1 [Compound 1, (5R,7S)-5-(4-ethylphenyl)-N-(4-methoxybenzyl)-7-(trifluoromethyl)-4,5,6,7-tetrahydropyrazolo[1,5-a]pyrimidine-3-carboxamide] | >25 ^* µM | ≥ 32 | 0.3 (≈ 0.138 µg/mL) | 0.69 | > 3 | bactericidal | 0.16 (≈ 0.0734 µg/mL) | 5 (≈ 2.29 µg/mL) | 0.16 to 2.5 µM and 0.3 to 5 µM | 0.6 (≈ 0.275 µg/mL) | 0.16 to 0.6 | 0.16 to 0.6 | 0.16 to 0.3 | 0.16 to 0.6 | 0.29 | accumulation of TMM | unaffected | signs of cytotoxicity at the maximum concentration tested ([1]; maximum concentration where compound was in solution): did not show initial signs of cytotoxicity; solubility in different media [10]: very low solubility
CCc1ccc([C@H]2C[C@@H](C(F)(F)F)n3ncc(C(=O)NCc4ccc5c(c4)OCO5)c3N2)cc1 [Compound 3] | > 25 µM | – | < 0.5 | 0.8 | – | – | – | – | – | – | – | – | – | – | – | – | – | MIC [6]: 0.16 µM (≈ 0.0756 µg/mL); DNAUC0-24h ([2]; mice, oral 50 mg/kg, whole blood): 0.6 ± 0.2 μg*h/ml per mg/kg; AUC(0-t) ([2]; mouse, in vivo, po, 50 mg/kg, mice, oral 50 mg/kg, whole blood, read-out: AUC0-24h): 26200 ± 9400 ng·h/mL; AUC(0-t) ([2]; mouse, in vivo, po, 50 mg/kg, po 50 mg/kg (Figure 4), read-out: AUC 24h): 26500 ng·h/mL; AUC ([2]; mouse, in vivo, po, 50 mg/kg, minimum requirement fulfilled, read-out: AUC after oral administration 50 mg/kg): > 1000 ng·h/mL; bioavailability ([2]; mouse, in vivo, mice, oral 50 mg/kg, whole blood, read-out: %F): 96.1 ± 32.2%; Cmax ([2]; mouse, in vivo, mice, oral 50 mg/kg, whole blood, read-out: Cmax): 1800 ± 500 ng/mL; Tmax ([2]; mouse, in vivo, mice, oral 50 mg/kg, whole blood, read-out: Tmax): 3 ± 2.8 h; reduction in lung bacterial load ([3]; 100 mg/kg orally once a day, day 1 to day 8, B6 mice): 1.5 log units; reduction in lung bacterial load ([3]; 300 mg/kg orally once a day, day 1 to day 8, B6 mice): 2.2 log units; MIC80 [8]: 0.31 µM (≈ 0.146 µg/mL)
c1cc2c(s1)CCOC21CCN(Cc2ccc3c(c2)OCCO3)CC1 [Compound 2] | 36 µM | ≥ 16 | 0.3 (≈ 0.107 µg/mL) | >30 | > 3 | bactericidal | 0.63 (≈ 0.225 µg/mL) | 266 (≈ 95.1 µg/mL) | 0.3 to 1.25 µM | 0.6 (≈ 0.214 µg/mL) | 0.3 to 1.25 | 0.3 to 10 | 0.6 to 10 | 0.3 to 10 | 25 | accumulation of TMM | unaffected | intrinsic clearance values in mice microsomes ([4]; in words): poor; intrinsic clearance values in human microsomes ([12]; in words): poor
